Experimental data published in article PMC7181660, “A novel specific PERK activator reduces toxicity and extends survival in Huntington's disease models” (Scientific Reports, 2020).

Tests used:
STHdh^Q111/111 cells = assay: Toxicity assay: rescue from tunicamycin (ER stress)-induced apoptosis, FACS with propidium iodide (sub-G0/G1); assay type: cell-based, murine
Procedure: (§1) STHdh^Q111/111 cells (used before[13]) or PERK+/+ or PERK−/− MEFs (kindly provided by David Ron, Univ. Cambridge) were incubated with Tun (10 μg/ml) for 48 h, which results in ER stress-induced cell death. Cells under the same conditions were incubated for the same times, together with Tun, with increasing concentrations of the different PERK modulators (0–120 μM) and the percent of apoptotic cells was measured by FACS cell cycle progression using propidium iodide (PI), considering the fraction beneath G0/G1. The relative apoptosis rate was calculated to be able to compare between compounds and experiments, where for each concentration curve the percent of apoptotic cells was considered 100 at concentration 0 of the PERK modulator, with only Tun. The graphs show the average relative apoptosis rate of at least 3 independent experiments for each compound.
(§2) Cells were washed with PBS and fixed with cold methanol. Before FACS analysis cells were washed with PBS, followed by addition of propidium iodide (PI) solution (10 μg/ml) and analysis by flow cytometry. Cells in sub-G0/G1 were counted as apoptotic/ dead.

WT MEF cells = assay: Rescue from tunicamycin-induced apoptosis in WT MEFs; assay type: cell-based; details: Mus musculus, MEF; WT MEFs treated with Tun; read-out: IC50 for inhibition of apoptosis
Procedure: as §1, §2

CHOP mRNA = CHOP mRNA by qPCR in STHdh^Q7/7 and STHdh^Q111/111 cells; assay type: cell-based, murine; details: both cell types, qPCR vs GAPDH
Procedure: (§3) Total cell RNA was extracted with TRIzol reagent (Invitrogen) according to the manufacturer's instructions. Reverse transcription (RT) was performed with QuantaBio qScript cDNA synthesis kit. Real-time qPCR was carried out using a CFX Connect Real-Time PCR Detection System (BioRad) and the amplifications were done using the SYBR Green PCR Master Mix (pcrbio). Reactions were run in triplicates in three independent experiments. Housekeeping gene GAPDH was used as an internal control to normalize the variability of expression levels.

HMOX1 mRNA = HMOX1 mRNA (downstream target of NRF2-P) by qPCR; assay type: cell-based, murine; details: STHdh^Q7/7 and STHdh^Q111/111 cells
Procedure: as §3
Suppl. Fig. S5. NRF2 activation but not involvement in cell protection by MK-28. A)
Scheme of NRF2 activation by PERK. B) qPCR of HMOX1, a downstream target of NR F2.
Medians +- interquartile range of 3 independent experiments . P values of STHdhQ7/7 MK 5µM […]
presence of Tun and the indicated concentrations of MK-28, plus increasing concentrations of the NRF2 inhibitor ML385. Average of 3 independent experiments +-SD. D) Apoptosis of STHdhQ111/111 cells treated only with increasing concentrations of ML385. Average of 3 independent experiments +-SD.
(1 picture or pasted object on this page, not shown here)

PERK (EIF2AK3) = molecular target: T1, PERK (EIF2AK3) (Homo sapiens, UniProt Q9NZJ5); assay: In vitro HotSpot kinase assay on isolated PERK; assay type: biochemical; details: isolated PERK, 1 μM ATP; read-out: EC50 of PERK activation
T1 construct: GST; purchased Life technologies, Carlsbad, CA; host or cells: insect cells
T1 sequence (Q9NZJ5 536-1116): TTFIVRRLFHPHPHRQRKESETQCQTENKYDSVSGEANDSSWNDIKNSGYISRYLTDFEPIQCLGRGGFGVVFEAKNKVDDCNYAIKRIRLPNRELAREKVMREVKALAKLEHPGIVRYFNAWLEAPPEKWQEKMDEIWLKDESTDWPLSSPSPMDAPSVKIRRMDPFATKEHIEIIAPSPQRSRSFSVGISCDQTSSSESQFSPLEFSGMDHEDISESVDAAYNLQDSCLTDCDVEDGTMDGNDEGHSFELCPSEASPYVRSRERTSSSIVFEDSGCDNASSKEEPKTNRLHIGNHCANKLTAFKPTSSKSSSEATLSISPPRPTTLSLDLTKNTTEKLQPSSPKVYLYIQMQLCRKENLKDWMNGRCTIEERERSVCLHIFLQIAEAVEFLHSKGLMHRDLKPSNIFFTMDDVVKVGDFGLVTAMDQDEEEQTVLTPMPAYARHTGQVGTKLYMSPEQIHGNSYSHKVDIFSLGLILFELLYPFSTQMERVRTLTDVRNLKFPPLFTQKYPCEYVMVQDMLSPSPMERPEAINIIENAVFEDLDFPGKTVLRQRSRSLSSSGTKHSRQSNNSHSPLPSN
Procedure: In vitro kinase assays with purified components and full kinase panel analysis was done at Reaction Biology Corp. (Malvern, PA, USA) using the HotSpot Kinase Assay. Reactions were performed for 20 min at room temp. using ^33P-ATP (Specific activity 10 μCi/μl) with 1 μM total ATP, 20 μM substrate and kinases in the nanomolar range in 20 mM Hepes (pH 7.5), 10 mM MgCl2, 1 mM EGTA, 0.02% Brij35, 0.02 mg/ml BSA, 0.1 mM Na3VO4, 2 mM DTT, 1% DMSO and other required factors depending on the assayed kinase.

B6 wild type mice = assay: Toxicity study, 2 weeks continuous subcutaneous Alzet pump delivery; assay type: in vivo; details: 6 mg/kg, 2 weeks continuous subcutaneous delivery
Procedure: Alzet pumps model 1004 (Alzet, USA), with a rate of 0.11 µl/hour and 28 days effective compound delivery was used. MK-28 compound was dissolved in 1:1 DMSO/PEG400 and prepared to delivery subcutaneously 6 mg/kg MK-28 for toxicity studies (n = 8) or 1 mg/kg for therapeutic evaluation in R6/2 mice (n = 72). For toxicity studies mice receiving six times the therapeutic dose of MK-28 or vehicle were weighed every two days for two consecutive weeks. […]. Alzet pumps were implanted in 4 weeks old mice and MK-28 was administered at 1 mg/kg with continuous dosing for 28 days. […]

**Q.** How did the “rescue from ER stress-induced apoptosis” value (STHdh^Q111/111 cells; 0–100 μM, 48 h Tun exposure (Fig. 1C)) turn out when `CN(/N=C\c1ccc(O)c(O)c1)c1nc(-c2ccccc2)cc(-c2ccccc2)n1` [MK-28] was run?
**A.** Its value is “able to rescue the cells from apoptosis”.

**Q.** And the reduction of apoptosis (STHdh^Q111/111 cells; 5 μM, 48 h Tun exposure)?
**A.** The reduction of apoptosis was 20%.

**Q.** What about the reduction of apoptosis (STHdh^Q111/111 cells; 10 μM, Tun (Fig. 4C)) of the same compound?
**A.** Its reduction of apoptosis is 40%.

**Q.** What about the reduction of apoptosis (STHdh^Q111/111 cells; 100 μM, 48 h Tun exposure) of the same compound?
**A.** Its reduction of apoptosis is 5 fold.

**Q.** And the “IC50 ratio MK-28 vs CCT020312 in rescuing mHtt-expressing striatal neurons from apoptosis” value (STHdh^Q111/111 cells; Fig. 4C)?
**A.** The value was ~ 3 fold.

**Q.** And the IC50 (STHdh^Q111/111 cells; Mus musculus, STHdhQ111, STHdh^Q111/111 cells treated with Tun, read-out: IC50 for inhibition of apoptosis)?
**A.** Its IC50 is 6800 nM.

**Q.** And the “concentration that showed identical levels of apoptosis in STHdh^Q111/111 and STHdh^Q7/7 cells” value (STHdh^Q111/111 cells; Tun (Fig. 1D))?
**A.** Its value is 50 µM.

**Q.** And the IC50 (WT MEF cells)?
**A.** Its IC50 is 1700 nM.

**Q.** And the “increase of CHOP mRNA levels” value (CHOP mRNA)?
**A.** The value was “up to 10 fold”.

**Q.** What about the “HMOX1 mRNA levels” value (HMOX1 mRNA) of the same compound?
**A.** Its value is “upregulation”.

**Q.** What about the EC50 (PERK (EIF2AK3)) of the same compound?
**A.** Its EC50 is 490 nM.

**Q.** And the toxic effects (B6 wild type mice)?
**A.** The toxic effects was “No toxic effects”.
